From US20040186081A1, “Naaladase inhibitors for treating opioid tolerance” (Guilford Pharmaceuticals Inc., priority 2003, published 2004)
Entries after “also recorded” stand apart in the source; their conditions may differ. Peptide text beside a SMILES is read from it.

What was measured:
[1] = in vivo; cited from earlier work
[2] = tested on: over 100 different receptors, ion channels, transporters, and enzymes including NMDA, AMPA, metabotropic glutamate receptors and glutamate transporters; conditions: cited from earlier work
C57/BL mice [3] = test: Acute effects in the tail-flick test (Experiment 2); type: in vivo
Protocol: (§1) Male C57/BL mice (IMP, Lodz, Poland), 22-24 g of body weight were group-housed in the standard laboratory cages and kept in a temperature-controlled colony room (21+2° C.) with a 12-hr light/dark cycle (light on: 07:00, off: 19:00). Commercial food and tap water were available ad libitum. Each experimental group consisted of 7-28 mice per treatment. All mice were used only once.
(§2) The intensity of the heat stimulus was adjusted so that the baseline tail-flick latency was ˜3 s. […] Each response assessment consisted of two separate measurements taken at different portions of the tail (spaced by 1.5-2 cm) and separated by 15 s. The mean of these responses was used for subsequent comparisons.

C57/BL mice [4] = test: animal or person; type: in vivo; conditions: for ED50: Mus musculus, sc
Protocol: as §1, §2

NAALADase [5] = target: T1, NAALADase (Homo sapiens, UniProt Q04609); test: In vitro inhibition of NAALADase activity; type: biochemical; conditions: for IC50: read-out: IC50
T1 sequence (Q04609 whole entry): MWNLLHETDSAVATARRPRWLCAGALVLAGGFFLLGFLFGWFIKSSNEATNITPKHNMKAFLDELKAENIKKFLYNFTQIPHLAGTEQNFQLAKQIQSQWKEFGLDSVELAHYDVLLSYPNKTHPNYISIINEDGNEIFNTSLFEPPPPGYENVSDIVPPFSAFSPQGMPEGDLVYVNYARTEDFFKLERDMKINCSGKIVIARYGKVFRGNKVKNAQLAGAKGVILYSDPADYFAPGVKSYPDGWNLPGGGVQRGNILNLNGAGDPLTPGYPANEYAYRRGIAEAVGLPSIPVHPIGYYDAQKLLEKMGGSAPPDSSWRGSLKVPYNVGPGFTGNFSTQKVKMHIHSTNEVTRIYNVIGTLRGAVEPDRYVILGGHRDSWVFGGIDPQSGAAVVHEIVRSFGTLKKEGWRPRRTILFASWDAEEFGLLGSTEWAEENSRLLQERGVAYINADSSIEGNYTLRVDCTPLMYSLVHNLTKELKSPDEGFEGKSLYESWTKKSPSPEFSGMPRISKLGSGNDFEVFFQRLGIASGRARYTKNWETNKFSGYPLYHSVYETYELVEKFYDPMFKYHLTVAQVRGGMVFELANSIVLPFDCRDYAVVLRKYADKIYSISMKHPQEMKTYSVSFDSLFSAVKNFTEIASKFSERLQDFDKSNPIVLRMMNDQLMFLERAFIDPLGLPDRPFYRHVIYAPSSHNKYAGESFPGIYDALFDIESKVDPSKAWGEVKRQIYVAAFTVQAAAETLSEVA

[6] = target: mGluRII receptors (mGluR3) (Homo sapiens, UniProt Q14832); conditions: read-out: EC50 as direct agonist at mGluRII receptors; cited from earlier work
Sequence of mGluRII receptors (mGluR3) (Q14832 23-879): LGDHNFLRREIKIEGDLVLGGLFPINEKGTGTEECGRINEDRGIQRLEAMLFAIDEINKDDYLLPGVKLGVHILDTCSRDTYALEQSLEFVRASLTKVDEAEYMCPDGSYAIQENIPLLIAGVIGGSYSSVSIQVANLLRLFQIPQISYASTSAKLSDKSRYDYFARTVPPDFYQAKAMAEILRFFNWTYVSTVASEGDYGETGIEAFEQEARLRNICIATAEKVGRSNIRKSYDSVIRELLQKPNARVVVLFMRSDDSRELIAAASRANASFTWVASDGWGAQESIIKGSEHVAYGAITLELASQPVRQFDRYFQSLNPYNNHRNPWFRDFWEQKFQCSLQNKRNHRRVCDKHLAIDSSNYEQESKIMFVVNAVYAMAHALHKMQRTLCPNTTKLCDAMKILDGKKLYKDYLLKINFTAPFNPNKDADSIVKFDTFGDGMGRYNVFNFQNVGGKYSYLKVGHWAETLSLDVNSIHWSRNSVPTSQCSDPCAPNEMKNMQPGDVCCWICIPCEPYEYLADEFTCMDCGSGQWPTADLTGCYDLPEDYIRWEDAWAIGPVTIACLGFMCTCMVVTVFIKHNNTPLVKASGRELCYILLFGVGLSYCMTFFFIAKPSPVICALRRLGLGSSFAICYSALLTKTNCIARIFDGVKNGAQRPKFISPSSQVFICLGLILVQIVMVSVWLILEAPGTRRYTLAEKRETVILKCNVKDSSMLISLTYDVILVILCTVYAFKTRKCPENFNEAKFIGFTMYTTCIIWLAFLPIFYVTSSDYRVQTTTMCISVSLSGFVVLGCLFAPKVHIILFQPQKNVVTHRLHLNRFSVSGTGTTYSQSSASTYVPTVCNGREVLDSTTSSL

NAALADase [7] = target: T1, NAALADase; conditions: read-out: Km of NAALADase for NAAG; cited from earlier work

Row | SMILES | IC50 (NAALADase [5]) | also measured
1 | NC1(C(=O)O)CCC2C(C(=O)O)C21 (single isomer, unassigned; (+)) [LY354740, (+)-2-aminobicyclo [3,1,0] hexane-2,6-dicarboxylic acid] |  | development of morphine tolerance [1]: inhibit the development of morphine tolerance
2 | O=C(O)CCC(CP(=O)(O)O)C(=O)O (stereo not drawn) [2-PMPA, 2-phosphonomethyl pentanedioic acid] |  | affinity for over 100 different receptors, ion channels, transporters, and enzymes [2]: no apparent affinity; effect on antinociceptive effects of morphine (C57/BL mice [3]; 100 mg/kg 2-PMPA i.p. 30 min before 1.5 or 3 mg/kg morphine s.c.): did not affect antinociceptive effects; also recorded: did not differ; tail-flick responses (AUC) compared to placebo+placebo (C57/BL mice [3]; 100 mg/kg of 2-PMPA i.p. + placebo): did not affect tail-flick responses; also recorded: did not differ from placebo+placebo treatment; effect on the development of morphine tolerance (C57/BL mice [4]; 2-PMPA 50 or 100 mg/kg given prior to each dose of morphine): attenuated the development of morphine tolerance
3 | O=C(O)c1ccc(Cl)c(CC(CCCS)C(=O)O)c1 (stereo not drawn) [5-carboxy-2-chloro-alpha-(3-mercaptopropyl)-benzenepropanoic acid] | 2.09 nM | 
4 | O=C(O)c1ccc(F)c(CC(CCCS)C(=O)O)c1 (stereo not drawn) [5-carboxy-2-fluoro-alpha-(3-mercaptopropyl)-benzenepropanoic acid] | 6.33 nM | 
5 | COc1ccc(C(=O)O)cc1CC(CCCS)C(=O)O (stereo not drawn) [5-carboxy-alpha-(3-mercaptopropyl)-2-methoxy-benzenepropanoic acid] | 26 nM | 
6 | O=C(O)c1ccc([N+](=O)[O-])c(CC(CCCS)C(=O)O)c1 (stereo not drawn) [5-carboxy-alpha-(3-mercaptopropyl)-2-nitro-benzenepropanoic acid] | 8.25 nM | 
7 | O=C(O)c1cc(O)ccc1CCS [5-hydroxy-2-(2-mercaptoethyl)-benzoic acid] | 9170 nM | 
8 | O=C(O)C(CCCS)Sc1ccccc1 (stereo not drawn) [5-mercapto-2-(phenylthio)-pentanoic acid] | 297 nM | 
9 | O=C(O)C(CCCS)Oc1ccccc1 (stereo not drawn) [5-mercapto-2-phenoxy-pentanoic acid] | 555 nM | 
10 | O=C(O)c1cc(CS)cc(C(=O)O)c1 [5-mercaptomethyl-1,3-benzenedicarboxylic acid] |  | Ki (NAALADase [5]): 6500 nM
11 | O=C(O)c1cc(C(=O)O)cc(P(=O)(O)O)c1 [5-phosphono-1,3-benzenedicarboxylic acid] |  | Ki (NAALADase [5]): 14000 nM
12 | O=C(O)c1cc(CP(=O)(O)O)cc(C(=O)O)c1 [5-phosphonomethyl-1,3-benzenedicarboxylic acid] |  | Ki (NAALADase [5]): 3100 nM
13 | O=C(NO)c1ccc(O)c(C(=O)O)c1 [6,N-Dihydroxy-isophthalamic acid] | ≥ 100000 nM | 
14 | O=C(O)c1cccc(CC(CCCS)C(=O)O)c1-c1ccccc1 (stereo not drawn) [6-(2-carboxy-5-mercaptopentyl)-[1,1′-biphenyl]-2-carboxylic acid] | 70 nM | 
15 | COC(=O)c1cc(C(=O)NO)ccc1OCc1ccccc1 [6-Benzyloxy-N-hydroxy-isophthalamic acid methyl ester] | ≥ 100000 nM | 
16 | O=C(NO)c1ccc(OCc2ccccc2)c(C(=O)O)c1 [6-Benzyloxy-N-hydroxy-isophthalamic acid] | ≥ 100000 nM | 
17 | CC12CC3CC(C)(C1)CC(N)(C3)C2 [Memantine, memantine] |  | effect on the development of morphine tolerance (C57/BL mice [4]; mouse, in vivo): produced an inhibition of morphine tolerance
18 | CN1CC[C@]23c4c5ccc(O)c4O[C@H]2[C@@H](O)C=C[C@H]3[C@H]1C5 [Morphine] |  | ED50 (C57/BL mice [3]; Mus musculus, sc, read-out: antinociceptive ED50 dose): 3 mg/kg; ED50 (C57/BL mice [4]; 24 h, read-out: Test #1 ED50 (morphine antinociceptive)): 1.49 ± 0.26 mg/kg; ED50 (C57/BL mice [4]; 192 h, read-out: Test #2 ED50 (morphine antinociceptive)): 8.85 ± 2.22 mg/kg
19 | O=C(NO)c1cc(OCC(F)(F)F)ccc1OCC(F)(F)F [N-Hydroxy-2,5-bis-(2,2,2-trifluoro-ethoxy)-benzamide] | ≥ 100000 nM | 
20 | Cc1ccc(C(=O)c2ccccc2C(=O)NO)cc1 [N-Hydroxy-2-(4-methyl-benzoyl)-benzamide] | ≥ 100000 nM | 
21 | CC(=O)N[C@@H](CC(=O)O)C(=O)N[C@@H](CCC(=O)O)C(=O)O [NAAG, N-acetyl-aspartyl-glutamate] (Ac-Asp-Glu-OH) |  | EC50 [6]: ~26000 nM; Km (NAALADase [7]): 0.54 µM
22 | COc1ccc(OC)c(CC(CCCS)C(=O)O)c1 (stereo not drawn) [alpha-(3-mercaptopropyl)-2,5-dimethoxy-benzenepropanoic acid] | 566 nM | 
23 | O=C(O)C(CCCS)Cc1ccc2ccccc2c1 (stereo not drawn) [alpha-(3-mercaptopropyl)-2-naphthalenepropanoic acid] | 1130 nM | 
24 | O=C(O)C(CCCS)Cc1cccc(C(F)(F)F)c1 (stereo not drawn) [alpha-(3-mercaptopropyl)-3-(trifluoromethyl)-benzenepropanoic acid] | 4000 nM | 
25 | O=C(NCc1ccccc1)c1cccc(CC(CCCS)C(=O)O)c1 (stereo not drawn) [alpha-(3-mercaptopropyl)-3-[[(phenylmethyl)amino]carbonyl]-benzenepropanoic acid] | 1130 nM | 
26 | O=C(O)C(CCCS)Cc1cccc(Oc2ccccc2)c1 (stereo not drawn) [alpha-(3-mercaptopropyl)-3-phenoxy-benzenepropanoic acid] | 308 nM | 
27 | O=C(O)C(CCCS)Cc1cccc(-c2ccccc2)c1 (stereo not drawn) [alpha-(3-mercaptopropyl)-3-phenyl-benzenepropanoic acid] | 181 nM | 
28 | CS(=O)(=O)c1ccc(CC(CCCS)C(=O)O)cc1 (stereo not drawn) [alpha-(3-mercaptopropyl)-4-(methylsulfonyl)-benzenepropanoic acid] | 211 nM | 
29 | O=C(O)C(CCCS)Cc1ccc(-c2ccccc2)cc1 (stereo not drawn) [alpha-(3-mercaptopropyl)-4-phenyl-benzenepropanoic acid] | 229 nM | 
30 | O=C(O)C(CCCS)Cc1ccccc1 (stereo not drawn) [alpha-(3-mercaptopropyl)-benzenepropanoic acid] | 2270 nM | 
